This is an account of results in ChEMBL document CHEMBL4033703, “Novel delta opioid receptor agonists with oxazatricyclodecane structure showing potent agonistic activities” (Bioorg Med Chem Lett, 2017).

Each structure is given as a SMILES string.

Assay [1] deals with Delta-type opioid receptor (Mus musculus, UniProt P32300). Kind of assay: Displacement of [3H]DPDPE from delta opioid receptor in mouse whole brain without cerebellum membrane.
Assay [2] deals with Mu-type opioid receptor (Mus musculus, UniProt P42866). The experiment in a line: Displacement of [3H]DAMGO from mu opioid receptor in mouse whole brain without cerebellum membrane.
Mu-type opioid receptor (Mus musculus, UniProt P42866), sequence (P42866 whole entry): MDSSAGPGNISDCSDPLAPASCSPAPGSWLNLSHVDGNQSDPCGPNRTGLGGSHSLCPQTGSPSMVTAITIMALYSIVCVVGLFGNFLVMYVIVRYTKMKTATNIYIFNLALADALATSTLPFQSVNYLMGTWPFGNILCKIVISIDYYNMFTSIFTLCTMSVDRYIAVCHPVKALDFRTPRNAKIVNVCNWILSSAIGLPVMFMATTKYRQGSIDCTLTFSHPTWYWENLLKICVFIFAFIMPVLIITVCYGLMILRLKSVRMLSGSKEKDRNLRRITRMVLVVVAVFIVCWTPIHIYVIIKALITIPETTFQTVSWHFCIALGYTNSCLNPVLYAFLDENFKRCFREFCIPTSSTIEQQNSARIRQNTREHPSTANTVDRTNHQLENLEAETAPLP
Assay [3] in a line: Selectivity ratio of Ki for kappa opioid receptor in guinea pig cerebellum membrane to Ki for delta opioid receptor in mouse whole brain without cerebellum. It counts as cell membranes.
For assay [4], the species on record is Mus musculus. The experiment in a line: Selectivity ratio of Ki for mu opioid receptor in mouse whole brain without cerebellum to Ki for delta opioid receptor in mouse whole brain without cerebellum.
The target of assay [5] is Kappa-type opioid receptor (Cavia porcellus, UniProt P41144). Kind of assay: Displacement of [3H]U-69,593 from kappa opioid receptor in guinea pig cerebellum membrane. The assay is classed as cell membranes. In general terms: Displacement assays read how much labelled ligand stays bound in the presence of the test substance.
Kappa-type opioid receptor (Cavia porcellus, UniProt P41144), sequence (P41144 whole entry): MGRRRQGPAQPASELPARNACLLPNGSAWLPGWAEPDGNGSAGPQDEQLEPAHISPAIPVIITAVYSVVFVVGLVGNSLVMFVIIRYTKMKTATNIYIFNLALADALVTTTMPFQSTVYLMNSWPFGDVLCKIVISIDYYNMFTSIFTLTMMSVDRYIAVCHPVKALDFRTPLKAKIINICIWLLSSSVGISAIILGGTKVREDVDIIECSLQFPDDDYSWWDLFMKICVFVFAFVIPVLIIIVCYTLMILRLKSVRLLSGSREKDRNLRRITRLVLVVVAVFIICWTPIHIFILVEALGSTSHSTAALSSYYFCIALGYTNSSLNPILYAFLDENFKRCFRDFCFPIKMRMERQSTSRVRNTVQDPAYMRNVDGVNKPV
Assay [6] deals with T1, Delta-type opioid receptor (Homo sapiens, UniProt P41143). Kind of assay: Agonist activity at human delta opioid receptor expressed in CHO cells assessed as inhibition of forskolin-induced cAMP accumulation after 30 mins by Eu-cAMP tracer based TR-FRET assay. It counts as functional, cell-based. For orientation: Changes in cAMP serve as a functional read-out for many G protein-coupled receptors.
T1 sequence (P41143 whole entry): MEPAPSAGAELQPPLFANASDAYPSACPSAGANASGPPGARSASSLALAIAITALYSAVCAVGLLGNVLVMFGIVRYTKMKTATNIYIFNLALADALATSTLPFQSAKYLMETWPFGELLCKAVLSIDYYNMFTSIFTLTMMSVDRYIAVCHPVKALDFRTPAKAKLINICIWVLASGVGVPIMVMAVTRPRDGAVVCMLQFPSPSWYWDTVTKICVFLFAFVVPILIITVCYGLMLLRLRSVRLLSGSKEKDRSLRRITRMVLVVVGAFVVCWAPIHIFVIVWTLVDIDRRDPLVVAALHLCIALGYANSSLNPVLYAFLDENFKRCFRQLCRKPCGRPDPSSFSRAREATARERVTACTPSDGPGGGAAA

Assay [7] concerns the target T2, Kappa-type opioid receptor (Homo sapiens, UniProt P41145). Kind of assay: Agonist activity at human kappa opioid receptor expressed in CHO cells assessed as inhibition of forskolin-induced cAMP accumulation after 30 mins by Eu-cAMP tracer based TR-FRET assay. The assay is classed as functional, cell-based.
Assay [8] concerns the target T3, Mu-type opioid receptor (Homo sapiens, UniProt P35372). Kind of assay: Agonist activity at human mu opioid receptor expressed in CHO cells assessed as inhibition of forskolin-induced cAMP accumulation at 10 uM after 30 mins by Eu-cAMP tracer based TR-FRET assay relative to DAMGO. It counts as functional, cell-based.
Assay [9] concerns the target T1, Delta-type opioid receptor. Kind of assay: Agonist activity at human delta opioid receptor expressed in CHO cells assessed as inhibition of forskolin-induced cAMP accumulation after 30 mins by Eu-cAMP tracer based TR-FRET assay relative to SNC80. The assay is classed as functional, cell-based.
The target in assay [10] is T2, Kappa-type opioid receptor. Kind of assay: Agonist activity at human kappa opioid receptor expressed in CHO cells assessed as inhibition of forskolin-induced cAMP accumulation after 30 mins by Eu-cAMP tracer based TR-FRET assay relative to U-69,593. The assay is classed as functional, cell-based.
For assay [11], the target named is T3, Mu-type opioid receptor. The experiment in a line: Agonist activity at human mu opioid receptor expressed in CHO cells assessed as inhibition of forskolin-induced cAMP accumulation after 30 mins by Eu-cAMP tracer based TR-FRET assay. It counts as functional, cell-based.
The target of assay [12] is T3, Mu-type opioid receptor. Kind of assay: Agonist activity at human mu opioid receptor expressed in CHO cells assessed as inhibition of forskolin-induced cAMP accumulation after 30 mins by Eu-cAMP tracer based TR-FRET assay relative to DAMGO. The assay is classed as functional, cell-based.
In assay [13] the target is T2, Kappa-type opioid receptor. Kind of assay: Agonist activity at human kappa opioid receptor expressed in CHO cells assessed as inhibition of forskolin-induced cAMP accumulation at 10 uM after 30 mins by Eu-cAMP tracer based TR-FRET assay relative to U-69,593. It counts as functional, cell-based.
Assay [14] has as its target T3, Mu-type opioid receptor. The experiment in a line: Displacement of [3H]DAMGO from human mu opioid receptor expressed in CHO cells. The assay is classed as cell-based.
Assay [15] deals with T1, Delta-type opioid receptor. The experiment in a line: Displacement of [3H]DPDPE from human delta opioid receptor expressed in CHO cells. It counts as cell-based.
The target of assay [16] is T2, Kappa-type opioid receptor. The experiment in a line: Displacement of [3H]U-69,593 from human kappa opioid receptor expressed in CHO cells. The assay is classed as cell-based.

Delta-type opioid receptor (Mus musculus, UniProt P32300), sequence (P32300 whole entry): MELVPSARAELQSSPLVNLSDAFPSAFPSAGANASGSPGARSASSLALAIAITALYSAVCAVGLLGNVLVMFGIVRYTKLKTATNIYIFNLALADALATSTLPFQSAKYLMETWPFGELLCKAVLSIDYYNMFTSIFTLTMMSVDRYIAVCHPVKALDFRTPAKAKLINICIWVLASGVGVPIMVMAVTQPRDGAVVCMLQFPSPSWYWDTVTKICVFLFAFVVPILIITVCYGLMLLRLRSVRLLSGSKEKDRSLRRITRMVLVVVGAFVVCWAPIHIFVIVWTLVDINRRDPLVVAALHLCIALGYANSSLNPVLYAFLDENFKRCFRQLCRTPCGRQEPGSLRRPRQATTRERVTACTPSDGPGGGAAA
T3 sequence (P35372 whole entry): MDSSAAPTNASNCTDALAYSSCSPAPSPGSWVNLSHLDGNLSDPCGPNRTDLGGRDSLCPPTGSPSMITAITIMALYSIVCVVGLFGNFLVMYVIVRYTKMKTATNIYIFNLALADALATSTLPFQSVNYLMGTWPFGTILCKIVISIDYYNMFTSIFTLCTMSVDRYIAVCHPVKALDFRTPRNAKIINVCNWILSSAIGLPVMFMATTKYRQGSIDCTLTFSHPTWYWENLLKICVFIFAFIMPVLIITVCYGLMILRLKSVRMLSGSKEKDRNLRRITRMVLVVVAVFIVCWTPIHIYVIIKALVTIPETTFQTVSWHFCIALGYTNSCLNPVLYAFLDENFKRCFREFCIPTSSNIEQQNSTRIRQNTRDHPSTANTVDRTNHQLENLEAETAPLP
T2 sequence (P41145 whole entry): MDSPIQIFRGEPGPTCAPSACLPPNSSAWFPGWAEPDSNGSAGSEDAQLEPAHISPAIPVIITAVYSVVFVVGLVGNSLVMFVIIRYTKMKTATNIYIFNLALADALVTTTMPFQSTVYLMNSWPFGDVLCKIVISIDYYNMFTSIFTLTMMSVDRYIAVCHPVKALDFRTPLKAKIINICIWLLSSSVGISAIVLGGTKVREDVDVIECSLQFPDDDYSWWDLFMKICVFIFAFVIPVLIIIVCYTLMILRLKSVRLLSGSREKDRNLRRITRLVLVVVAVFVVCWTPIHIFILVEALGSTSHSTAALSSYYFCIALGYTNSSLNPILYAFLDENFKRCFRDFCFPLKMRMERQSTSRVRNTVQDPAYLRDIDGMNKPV

For orientation: Ki means the equilibrium dissociation constant of an inhibitor or competing ligand from its target. One may read the EC50 as the midpoint of the concentration-response curve. In general, Emax refers to the maximal effect, on the per cent scale that the assay sets. Take `CC(C)CN1CCC23c4cc(O)ccc4CC1C21CCC2C3[C@@H](CN2C(=O)c2ccccc2)O1` (some centres not stated): the Ki in assay [1] came to 0.76 nM; in [2], 4.48 nM; in [5], 6.25 nM. Besides, the Ratio Ki in [3] was found to be 8.2; in [4] it was 5.9. The EC50 was 3 nM in assay [6] and 98 nM in assay [7]. Further, the Emax in assay [8] turned out to be 15%; in assay [9], 99%; in assay [10], 19%.

On to `CN1CCC23c4cc(O)ccc4CC1C21CCC2C3[C@@H](CN2C(=O)c2ccccc2)O1` (some centres not stated), for which the values for the inhibitory constant (Ki) in assay [1], in assay [2] and in assay [5] were 0.301 nM, 0.383 nM and 31.3 nM, respectively. In addition, the Ratio Ki in assay [3] came out at 104; in assay [4], 1.3. The EC50 in assay [11] was 5.9 nM; in assay [6], 0.43 nM; in assay [7], 50 nM. In addition, the results for the Emax in assay [9], in assay [10] and in assay [12] were 94%, 96% and 103%, respectively.

As to `C=CCN1CCC23c4cc(O)ccc4CC1C21CCC2C3[C@@H](CN2C(=O)c2ccccc2)O1` (some centres not stated), the figures for the Ki in assay [1], in assay [2] and in assay [5] were 0.109 nM, 0.833 nM and 2.54 nM, respectively. Besides, the Ratio Ki worked out at 23 in assay [3] and 7.6 in assay [4]. Also, in assay [6], the EC50 was found to be 0.43 nM. Besides, the Emax came out at 2.2% in [8], 73% in assay [9] and 4.2% in [13].

For the compound `COCCCN1CC[C@]23Cc4nc5ccccc5cc4C[C@@]2(O)[C@H]1Cc1ccc(O)cc13`, in assay [6], the ED50 is 0.46 nM. Further, the Emax is 25% in assay [8], 95% in assay [9] and 14% in [13].

On to `Oc1ccc2c(c1)C13CCN(CC4CC4)C(C2)C12CCC1C3[C@@H](CN1Cc1ccccc1)O2` (some centres not stated), for which the Ki in assay [14] is 1.56 nM; in assay [15], 0.501 nM; in assay [16], 1.38 nM. The EC50 in assay [6] was determined as 0.67 nM. In addition, the maximal effect (Emax) in assay [8] is 4.2%; in assay [9] it was 79%; in [13], 12%.

Regarding `O=S(=O)(c1ccccc1)N1C[C@H]2OC34CCC1C2C31CCN(CC2CC2)C4Cc2ccc(O)cc21` (some centres not stated), the figures for the Ki in assay [14], in assay [15] and in assay [16] were 0.308 nM, 0.221 nM and 0.658 nM, respectively. Also, the EC50 amounted to 2.5 nM in assay [11] and 1.2 nM in assay [6]. Also, the Emax in assay [9] came out at 66%; in assay [13] it was 19%; in [12], 54%.

Turning to `COCCCN1CCC23c4cc(O)ccc4CC1C21CCC2C3[C@@H](CN2C(=O)c2ccccc2)O1` (some centres not stated), the inhibition constant Ki in assay [1] was found to be 0.368 nM; in assay [2], 3.94 nM; in assay [5], 20.3 nM. Also, the Ratio Ki in assay [3] was determined as 55; in assay [4], 11. Further, the figures for the EC50 in assay [11] and in assay [6] were 22 nM and 1.4 nM, respectively. Further, the Emax in assay [9] was found to be 120%; in [13], 23%; in assay [12], 55%.

On to `O=C(c1ccccc1)N1C[C@H]2OC34CCC1C2C31CCN(CC2CC2)C4Cc2ccc(O)cc21` (some centres not stated), for which the inhibition constant (Ki) in assay [1] came to 0.274 nM; in assay [2], 0.325 nM; in assay [14], 0.627 nM; in [5], 1.21 nM; in [15], 0.154 nM; in assay [16], 1.05 nM. Moreover, the results for the Ratio Ki in [3] and in assay [4] were 4.4 and 1.2, respectively. Further, the EC50 in assay [6] is 0.54 nM. The maximum response (Emax) in assay [8] was found to be 3.9%; in assay [9] it was 96%; in assay [13], 2.9%.

With `O=C(c1ccccc1)N1C[C@H]2OC34CCC1C2C31CCN(CCc2ccccc2)C4Cc2ccc(O)cc21` (some centres not stated), the inhibition constant Ki in assay [1] worked out at 0.458 nM; in assay [2] it was 0.548 nM; in [5] it was 34.1 nM. For the same compound, the Ratio Ki is 74 in [3] and 1.2 in assay [4]. The values for the half-maximal effective concentration (EC50) in [11], in assay [6] and in assay [7] were 5.3 nM, 0.61 nM and 404 nM, respectively. Also, the Emax was 100% in [9], 56% in assay [10] and 109% in assay [12].
